This note sets out measurements from US20100093811A1 (priority 2007, published 2010).

The target in one assay is wild-type HIV-1 protease (Human immunodeficiency virus type 1 group M subtype B, UniProt P04585). In words: Assay for inhibition of microbial expressed HIV protease. It is filed as biochemical. Put shortly: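 Inhibition taken from HPLC (C18) product peak areas after phosphoric acid quench. Reaction: 440 micromolar Val-Ser-Gln-Asn-(betanapthyl)Ala-Pro-Ile-Val peptide, 5 pM E. coli-made protease, 1 h at 30° C, following 30 min room-temperature inhibitor preincubation in pH 5.5 acetate/NaCl/BSA buffer.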

Assay [1] concerns acute HIV infection of T-lymphoid cells. In words: Assay for inhibition of HIV replication (spread assay). Type of assay: cell-based, HIV-1. The following applies: read-out: Spread - IC95. The procedure:
• Assay for Inhibition of HIV Replication
Assays for the inhibition of acute HIV infection of T-lymphoid cells were conducted in accordance with Vacca, J. P. et al., Proc. Natl. Acad. Sci. USA 1994, 91: 4096.

Where [2] appears, read: wild-type HIV-1 protease expressed in E. coli, peptide substrate, pH 5.5, read-out: Enzyme Inhibition - IC50.
[3] abbreviates: Human immunodeficiency virus 1, T-lymphoid.

Structures can show the parent of a compound that is named as a salt. Where two headings read alike, the source gives them in different places.

For the compound `CC[C@@H](CCC[C@@H](CO)N(CCC(C)C)S(=O)(=O)c1ccc(N)c(Br)c1)NC(=O)[C@@H](NC(=O)OC)C(c1ccccc1)c1ccccc1` [Example D17, N-{(1S,5S)-5-[[(4-amino-3-bromophenyl)sulfonyl](3-methylbutyl)amino]-1-ethyl-6-hydroxyhexyl}-Nα-(methoxycarbonyl)-β-phenyl-L-phenylalaninamide], the IC50 on wild-type HIV-1 protease (setting [2]) came out at 0.38 nM. For the same compound, in assay [1] (setting [3]), the IC95 was 154 nM.
The like results for `COC(=O)N[C@H](C(=O)N[C@H](CCC[C@@H](CO)N(CCC(C)C)S(=O)(=O)c1ccc(N)c(F)c1)C1CC1)C(c1ccccc1)c1ccccc1` [Example E3, N-{(1R,5S)-5-[[(4-amino-3-fluorophenyl)sulfonyl](3-methylbutyl)amino]-1-cyclopropyl-6-hydroxyhexyl}-Nα-(methoxycarbonyl)-β-phenyl-L-phenylalaninamide] were, in that order, 0.057 nM and 11 nM.
As to `COC(=O)N[C@H](C(=O)NC(CO)CCCC(CO)N(CCC(C)C)S(=O)(=O)c1ccc(N)cc1)C(c1ccccc1)c1ccccc1` (single isomer, unassigned) [Example M1-7A, N-[(1R or 1S,5R or 5S)-5-[[(4-aminophenyl)sulfonyl](3-methylbutyl)amino]-6-hydroxy-1-(hydroxymethyl)hexyl]-Nα-(methoxycarbonyl)-β-phenyl-L-phenylalaninamide], the IC50 on wild-type HIV-1 protease (setting [2]) is 0.349 nM. Moreover, the IC95 in assay [1] (setting [3]) was found to be 302 nM.
The like results for `CC[C@@H](CCC[C@@H](CO)N(CCC(C)C)S(=O)(=O)c1ccc(N)cc1)NC(=O)[C@@]1(NC(=O)OC(C)(C)C)C[C@@H]1c1ccccc1` [Example F9, tert-butyl {(1R,2R)-1-[({(1S,5S)-5-[[(4-aminophenyl)sulfonyl](3-methylbutyl)amino]-1-ethyl-6-hydroxyhexyl}amino)carbonyl]-2-phenylcyclopropyl}carbamate] were, in that order, 0.064 nM and 76 nM.
The like results for `COC(=O)N[C@H](C(=O)N[C@@H](C)CCC[C@@H](CO)N(C1CCC1)S(=O)(=O)c1ccc(CO)cc1)C(c1ccccc1)c1ccccc1` [Example G17, N-[(1S,5S)-5-(cyclobutyl{[4-(hydroxymethyl)phenyl]sulfonyl}amino)-6-hydroxy-1-methylhexyl]-Nα-(methoxycarbonyl)-β-phenyl-L-phenylalaninamide] were, in that order, 0.077 nM and 137 nM.
The like results for `COC(=O)N[C@H](C(=O)N[C@H](CCC[C@@H](CO)N(CC(C)C)S(=O)(=O)c1ccc2ncsc2c1)C1CC1)C(c1ccccc1)c1ccccc1` [Example E6, N-{(1R,5S)-5-[(1,3-benzothiazol-6-ylsulfonyl)(isobutyl)amino]-1-cyclopropyl-6-hydroxyhexyl}-Nα-(methoxycarbonyl)-β-phenyl-L-phenylalaninamide] were, in that order, 0.352 nM and 27 nM.
As to `COC(=O)N[C@H](C(=O)N[C@H](CCC[C@@H](CO)N(C)S(=O)(=O)c1ccc(CO)cc1)C1CC1)C(c1ccccc1)c1ccccc1` [Example I6, N-{(1R,5S)-1-cyclopropyl-6-hydroxy-5-[{[4-(hydroxymethyl)phenyl]sulfonyl}(methyl)amino]hexyl}-Nα-(methoxycarbonyl)-β-phenyl-L-phenylalaninamide], the IC50 on wild-type HIV-1 protease (setting [2]) was 1.03 nM. In assay [1] (setting [3]), the IC95 was 187 nM.
For `CC(C)N([C@H](CO)CCCC(C)(C)NC(=O)[C@@H](N)C(c1ccccc1)c1ccccc1)S(=O)(=O)c1ccc(N)cc1` [Example L2, N-{(5S)-5-[[(4-aminophenyl)sulfonyl](isopropyl)amino]-6-hydroxy-1,1-dimethylhexyl}-β-phenyl-L-phenylalaninamide], in that order: 0.018 nM and 23 nM.
For `CC[C@@H](CCC[C@@H](CO)N(CCC(C)C)S(=O)(=O)c1ccc(N)cc1)NC(=O)[C@@H](N)C(c1ccccc1)c1ccccc1` [Example F13, N-{(1S,5S)-5-[[(4-aminophenyl)sulfonyl](3-methylbutyl)amino]-1-ethyl-6-hydroxyhexyl}-β-phenyl-L-phenylalaninamide], in that order: 0.01 nM and 15 nM.
For `COC(=O)N[C@@H](Cc1ccccc1Cl)C(=O)N[C@@H](C)CCC[C@@H](CO)N(C(C)C)S(=O)(=O)c1ccc(N)cc1` [Example G11, N-{(1S,5S)-5-[[(4-aminophenyl)sulfonyl](isopropyl)amino]-6-hydroxy-1-methylhexyl}-2-chloro-Nα-(methoxycarbonyl)-L-phenylalaninamide], in that order: 1.3 nM and 93 nM.
`CN[C@H](C(=O)NC(C)(C)CCC[C@@H](CO)N(C(C)C)S(=O)(=O)c1ccc(N)cc1)C(c1ccccc1)c1ccccc1` [Example L9, N-{(5S)-5-[[(4-aminophenyl)sulfonyl](isopropyl)amino]-6-hydroxy-1,1-dimethylhexyl}-Nα-methyl-β-phenyl-L-phenylalaninamide hydrochloride] yielded an IC50 at wild-type HIV-1 protease of 0.1 nM. Besides, the IC95 in assay [1] (setting [3]) was determined as 26 nM.
Turning to `COC(=O)N[C@@H](Cc1ccccc1Cl)C(=O)N[C@@H](C)CCC[C@@H](CO)N(C)S(=O)(=O)c1ccc(CO)cc1` [Example G8, 2-chloro-N-{(1S,5S)-6-hydroxy-5-[{[4-(hydroxymethyl)phenyl]sulfonyl}(methyl)amino]-1-methylhexyl}-Nα-(methoxycarbonyl)-L-phenylalaninamide], the IC50 on wild-type HIV-1 protease (setting [2]) turned out to be 3.2 nM. In assay [1] (setting [3]), the concentration for an effect of 95% (IC95) was determined as 191 nM.
For the compound `COC(=O)N[C@H](C(=O)NC(CO)CCCC(CO)N(CCC(C)C)S(=O)(=O)c1ccc(N)cc1)C(c1ccccc1)c1ccccc1` (single isomer, unassigned) [Example M1-7B, N-[(1R or 1S, 5R or 5S)-5-[[(4-aminophenyl)sulfonyl](3-methylbutyl)amino]-6-hydroxy-1-(hydroxymethyl)hexyl]-Nα-(methoxycarbonyl)-β-phenyl-L-phenylalaninamide], on wild-type HIV-1 protease (setting [2]), the IC50 is 0.013 nM. Also, in assay [1] (inhibition of HIV-1 replication, 10% FBS), the IC95 was 230 nM.
On to `COC(=O)N[C@@H](Cc1ccccc1Cl)C(=O)N[C@@H](C)CCC[C@@H](CO)N(CC(C)C)S(=O)(=O)c1ccc(CO)cc1` [Example G2, 2-chloro-N-{(1S,5S)-6-hydroxy-5-[{[4-(hydroxymethyl)phenyl]sulfonyl}(isobutyl)amino]-1-methylhexyl}-Nα-(methoxycarbonyl)-L-phenylalaninamide], for which the IC50 on wild-type HIV-1 protease (setting [2]) is 0.082 nM. In addition, the IC95 in assay [1] (setting [3]) was found to be 14 nM.
For `CC[C@@H](CCC[C@@H](CO)N(CC(C)C)S(=O)(=O)c1ccc(CO)cc1)NC(=O)[C@H](Cc1ccccc1Cl)NC(=O)OC` [Example J21, 2-chloro-N-{(1S,55)-1-ethyl-6-hydroxy-5-[{[4-(hydroxymethyl)phenyl]sulfonyl}(isobutyl)amino]hexyl}-Nα-(methoxycarbonyl)-L-phenylalaninamide], in that order: 0.419 nM and 49 nM.
